Bridge positions count the residues as written; N and C are the ends. Square brackets hold non-standard residues; d marks the D form. Peptide text beside a SMILES is read from it. I, II: the chains in the order shown. * marks the point of attachment. Quinaldoyl(3-OH) = O=C(c1nc2ccccc2cc1O)*; NMeC = CN[C@@H](CS)C(=O)O
Columns and labels:
Format in all cases: functional
A549 = assay: Cytotoxicity against human A549 cells after 72 hrs by SRB assay; conditions: A549, 72 h
HeLa = assay: Cytotoxicity against human HeLa cells after 72 hrs by SRB assay
SK-MEL-28 = assay: Cytotoxicity against human SK-MEL-28 cells after 72 hrs by SRB assay; conditions: SK-MEL-28, 72 h
LoVo [1] = assay: Cytotoxicity against human LoVo cells after 72 hrs by SRB assay
K562 = assay: Cytotoxicity against human K562 cells after 72 hrs by SRB assay; conditions: K562, 72 h
PANC-1 = assay: Cytotoxicity against human PANC1 cells after 72 hrs by SRB assay; conditions: PANC-1, 72 h
LoVo [2] = assay: Cytotoxicity against doxorubicin resistant human LoVo cells after 72 hrs by SRB assay
SK-BR-3 = assay: Cytotoxicity against human SK-BR3 cells after 72 hrs by SRB assay; conditions: SK-BR-3, 72 h
DU-145 = assay: Cytotoxicity against human DU145 cells after 72 hrs by SRB assay; conditions: DU-145, 72 h
[3] = Cytotoxicity against human IGROV cells after 72 hrs by SRB assay
LNCaP = assay: Cytotoxicity against human LNCaP cells after 72 hrs by SRB assay
HT-29 = assay: Cytotoxicity against human HT29 cells after 72 hrs by SRB assay; conditions: HT-29, 72 h
[4] = read-out: LC50 (the source's name)

## CSC[C@H]1C(=O)SC[C@@H](NC(=O)c2nc3ccccc3cc2O)C(=O)NCC(=O)N(C)[C@H]2CSSC[C@@H](C(=O)N1C)N(C)C(=O)CNC(=O)[C@H](NC(=O)c1nc3ccccc3cc1O)CSC(=O)[C@H](CSC)N(C)C2=O [THIOCORALINE A] (I: {Quinaldoyl(3-OH)}-[dC]G[NMeC][NMeC](Me) / II: {Quinaldoyl(3-OH)}-[dC]G[NMeC][NMeC](Me); thioester I:1-II:C, I:C-II:1; disulfide I:3-II:3)
A549
  GI50: 4.8 nM
  TGI: 19.3 nM
A549; [4]
  CC50: 95.6 nM
HeLa
  GI50: 1.3 nM
  TGI: 4.7 nM
HeLa; [4]
  CC50: 22.6 nM
SK-MEL-28
  GI50: 3 nM
  TGI: 14 nM
SK-MEL-28; [4]
  CC50: 50.3 nM
LoVo [1]
  GI50: 7.2 nM
  TGI: 263 nM
LoVo [1]; [4]
  CC50: 284 nM
K562
  GI50: 1.3 nM
  TGI: 4.6 nM
K562; [4]
  CC50: 9.2 nM
PANC-1
  GI50: 2.5 nM
  TGI: 82.5 nM
PANC-1; [4]
  CC50: 378 nM
LoVo [2]
  GI50: 212 nM
  TGI: 2380 nM
SK-BR-3
  GI50: 2.2 nM
  TGI: 8.9 nM
SK-BR-3; [4]
  CC50: 30.8 nM
DU-145
  GI50: 1.9 nM
  TGI: 6.4 nM
DU-145; [4]
  CC50: 1480 nM
[3]
  GI50: 1.9 nM
  TGI: 11.1 nM
[3]; [4]
  CC50: 1260 nM
LNCaP
  GI50: 3 nM
  TGI: 5 nM
LNCaP; [4]
  CC50: 14.2 nM
HT-29
  GI50: 3.9 nM
  TGI: 73.6 nM
HT-29; [4]
  CC50: 6.29 µM
